Test results reported in ChEMBL document CHEMBL4196219, “Rare Thioglycosides from the Roots of Wasabia japonica” (J Nat Prod, 2018).

Test system: BV-2
Test: Antiinflammatory activity in mouse BV2 cells assessed as inhibition of LPS-induced nitric oxide production after 24 hrs by Griess reagent based assay
Assay type: functional, cell-based
Conditions: BV-2, 24 h

## C[C@@H]1CSS[C@@H]2O[C@H](CO)[C@@H](O)[C@H](O)[C@H]2OC1=O
  IC50: 41.2 µM
